For series [1], the system named is Aphidius rhopalosiphi. In words: LR50; higher = less toxic. The conditions noted are these: not reported; mortality.
The subject of series [2] is Typhlodromus pyri. The series is described as follows: LR50; higher = less toxic. The settings on record: not reported; mortality.
The subject of series [3] is Canidae. The settings on record: chronic; duration: 1 years; oral; Dog Other; gross pathology.
The test system of series [4] is Rattus norvegicus. The conditions noted are these: for LD50: acute, mortality.
The test system of series [5] is Bibionidae. The settings on record: chronic/long-term; duration: 28 days.
The test system of series [6] is Oryctolagus sp. The conditions noted are these: reproduction developmental; clinical signs.
For series [7], the system named is Colinus virginianus.
The test system of series [8] is Oncorhynchus mykiss. The settings on record: acute; duration: 96 hours; mortality.
Series [9] relates to Apis mellifera. The settings on record: acute, mortality.
Series [10] deals with Tagia sp. The settings on record: chronic/long-term; duration: 56 days; reproduction.
The test system of series [11] is Pimephales promelas. The conditions noted are these: acute; duration: 96 hours; mortality.
Series [12] has as its system Folsomia candida. The settings on record: chronic/long-term; duration: 28 days; reproduction.
The mark [13] stands for this setting: chronic, duration: 2 years, organ weight.

In brackets after ≈: the same amount, converted by molar mass. A value given as a limit tells only on which side of the number the result lay.

What is called NOAEL is the highest tested level that showed no adverse finding. One may read the LC50 as the concentration that kills 50% of the test population. As for `O=C(O)CCCOc1ccc(Cl)cc1Cl` [2,4-Dichlorophenoxybutyric acid], the LR50 in series [1] and in series [2] was greater than 1800 g/ha each time. The NOAEL in series [3] was found to be 2.04 mg/kg-day; in series [4] (setting [13]) it was 2.48 mg/kg-day; in series [4] (reproduction developmental, reproduction) it was 22.5 mg/kg-day; in series [6] it was 30 mg/kg-day. The LD50 is 1470 mg/kg in [4] (oral); 1540 mg/kg in series [7] (acute, oral, mortality); greater than 100 µg/piece in [9] (dermal); greater than 100 µg/piece in series [9] (oral, unspecified). The NOEC is 24.6 mg/kg in series [5], 101 mg/kg-day in series [7] (chronic) and 82.1 mg/kg in series [10]. The compound also had an LC50 in series [8] of 3 µg/mL (≈ 12 µM).

Regarding `O=C(O)COc1ccc(Cl)cc1Cl` [2,4-Dichlorophenoxyacetic acid], the LC50 in series [11] is 100 µg/mL (≈ 452 µM). The NOAEL in series [3] is 2.04 mg/kg-day; in series [4] (chronic), 20.6 mg/kg-day; in series [4] (setting [13]), 2.48 mg/kg-day; in series [6], 30 mg/kg-day. In addition, the LD50 is 486 mg/kg in series [4]; greater than 100 µg/piece in series [9] (dermal); 94 µg/piece in [9] (oral, unspecified). This compound registered an NOEC in [10] of 62.5 mg/kg.

For `Oc1ccc(Cl)cc1Cl` [2,4-Dichlorophenol], in series [12], the NOEC is 0.63 mg/kg.

The values above are taken from EPA's ToxValDB 9.5 (doi:10.2903/j.efsa.2016.4500).
